Counter-ions that a name gives are not always drawn. Active and inactive are the calls of the source.
Assays:
[1] = Vero cell cytotoxicity, dose response, cytotoxicity control for Vif-APOBEC3G degradation inhibitor project, Vero cells (AID 1117358); assay type: functional; conditions: Human immunodeficiency virus 1, Vero
[2] = inhibitors of Vif binding to APOBEC3G peptide, primary screen, biochemical, TR-FRET, GST-Vif 1-94, biotin-A3G peptide, dose response retest (AID 1117319); assay type: functional;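 further: TR-FRET signal of purified GST-Vif binding a biotinylated A3G peptide; inhibitors lower the FRET signal by blocking Vif and A3G binding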
[3] = target: SWI/SNF-related matrix-associated actin-dependent regulator of chromatin subfamily A member 2 (Homo sapiens, UniProt P51531); test: Luminescence-based cell-based high throughput dose response assay to identify activators of the function of SWI/SNF related, matrix associated, actin dependent regulator of chromatin, subfamily a, member 2 (SMARCA2, BRM).; assay type: functional
Sequence of SWI/SNF-related matrix-associated actin-dependent regulator of chromatin subfamily A member 2 (P51531 whole entry): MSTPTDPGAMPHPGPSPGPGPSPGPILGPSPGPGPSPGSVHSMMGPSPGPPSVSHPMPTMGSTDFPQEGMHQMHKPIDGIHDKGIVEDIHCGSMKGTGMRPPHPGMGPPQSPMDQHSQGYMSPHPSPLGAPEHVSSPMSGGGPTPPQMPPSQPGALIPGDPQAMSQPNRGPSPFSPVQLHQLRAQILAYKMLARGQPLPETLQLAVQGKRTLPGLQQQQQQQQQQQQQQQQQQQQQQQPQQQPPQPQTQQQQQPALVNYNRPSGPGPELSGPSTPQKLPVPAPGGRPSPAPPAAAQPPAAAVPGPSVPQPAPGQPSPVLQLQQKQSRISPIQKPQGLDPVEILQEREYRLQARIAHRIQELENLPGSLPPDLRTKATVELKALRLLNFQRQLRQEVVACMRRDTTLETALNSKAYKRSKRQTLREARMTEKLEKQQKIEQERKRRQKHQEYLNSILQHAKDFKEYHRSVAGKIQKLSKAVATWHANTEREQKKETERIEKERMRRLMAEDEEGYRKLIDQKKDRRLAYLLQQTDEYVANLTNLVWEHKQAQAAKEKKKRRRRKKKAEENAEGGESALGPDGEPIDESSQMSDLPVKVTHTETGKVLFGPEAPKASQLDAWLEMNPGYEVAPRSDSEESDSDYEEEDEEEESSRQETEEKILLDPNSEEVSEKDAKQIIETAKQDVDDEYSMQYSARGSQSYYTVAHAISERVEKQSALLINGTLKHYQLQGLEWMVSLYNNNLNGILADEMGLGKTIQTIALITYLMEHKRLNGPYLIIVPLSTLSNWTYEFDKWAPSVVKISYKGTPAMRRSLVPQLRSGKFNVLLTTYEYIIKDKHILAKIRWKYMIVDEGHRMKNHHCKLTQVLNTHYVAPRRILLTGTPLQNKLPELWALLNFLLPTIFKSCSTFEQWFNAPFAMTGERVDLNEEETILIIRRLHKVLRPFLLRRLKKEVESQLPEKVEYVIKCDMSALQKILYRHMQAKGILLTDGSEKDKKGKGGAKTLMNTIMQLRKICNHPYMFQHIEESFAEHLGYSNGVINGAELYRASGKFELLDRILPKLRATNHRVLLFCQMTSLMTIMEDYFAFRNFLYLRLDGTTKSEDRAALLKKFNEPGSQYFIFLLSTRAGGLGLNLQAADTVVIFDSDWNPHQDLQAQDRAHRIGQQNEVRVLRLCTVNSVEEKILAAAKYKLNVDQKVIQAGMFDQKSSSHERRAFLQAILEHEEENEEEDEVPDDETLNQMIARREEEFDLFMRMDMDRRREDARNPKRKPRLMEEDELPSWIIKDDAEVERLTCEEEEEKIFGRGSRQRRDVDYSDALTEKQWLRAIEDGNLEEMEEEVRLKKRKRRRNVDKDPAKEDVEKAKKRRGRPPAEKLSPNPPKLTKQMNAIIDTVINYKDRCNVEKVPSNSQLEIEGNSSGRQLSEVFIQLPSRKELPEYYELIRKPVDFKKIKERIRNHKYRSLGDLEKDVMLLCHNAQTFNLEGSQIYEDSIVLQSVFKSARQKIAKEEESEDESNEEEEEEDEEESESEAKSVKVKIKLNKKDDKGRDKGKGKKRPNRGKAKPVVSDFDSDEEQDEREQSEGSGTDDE

[4] = Counterscreen for activators of the function of SWI/SNF related, matrix associated, actin dependent regulator of chromatin, subfamily a, member 2 (SMARCA2, BRM): Luminescence-based cell-based high throughput dose response assay to identify non-selective compounds using the VP16 reporter assay.; assay type: functional
[5] = target: E3 ubiquitin-protein ligase UHRF1 (Homo sapiens, UniProt Q96T88); test: Counterscreen for inhibitors of 5-meCpG-binding domain protein 2 (MBD2): TRFRET-based biochemical high throughput dose response assay to identify inhibitors of binding of ubiquitin-like with PHD and ring finger domains 1 (UHRF1) to methylated oligonucleotide.
Sequence of E3 ubiquitin-protein ligase UHRF1 (Q96T88 whole entry, the tested form may be a part): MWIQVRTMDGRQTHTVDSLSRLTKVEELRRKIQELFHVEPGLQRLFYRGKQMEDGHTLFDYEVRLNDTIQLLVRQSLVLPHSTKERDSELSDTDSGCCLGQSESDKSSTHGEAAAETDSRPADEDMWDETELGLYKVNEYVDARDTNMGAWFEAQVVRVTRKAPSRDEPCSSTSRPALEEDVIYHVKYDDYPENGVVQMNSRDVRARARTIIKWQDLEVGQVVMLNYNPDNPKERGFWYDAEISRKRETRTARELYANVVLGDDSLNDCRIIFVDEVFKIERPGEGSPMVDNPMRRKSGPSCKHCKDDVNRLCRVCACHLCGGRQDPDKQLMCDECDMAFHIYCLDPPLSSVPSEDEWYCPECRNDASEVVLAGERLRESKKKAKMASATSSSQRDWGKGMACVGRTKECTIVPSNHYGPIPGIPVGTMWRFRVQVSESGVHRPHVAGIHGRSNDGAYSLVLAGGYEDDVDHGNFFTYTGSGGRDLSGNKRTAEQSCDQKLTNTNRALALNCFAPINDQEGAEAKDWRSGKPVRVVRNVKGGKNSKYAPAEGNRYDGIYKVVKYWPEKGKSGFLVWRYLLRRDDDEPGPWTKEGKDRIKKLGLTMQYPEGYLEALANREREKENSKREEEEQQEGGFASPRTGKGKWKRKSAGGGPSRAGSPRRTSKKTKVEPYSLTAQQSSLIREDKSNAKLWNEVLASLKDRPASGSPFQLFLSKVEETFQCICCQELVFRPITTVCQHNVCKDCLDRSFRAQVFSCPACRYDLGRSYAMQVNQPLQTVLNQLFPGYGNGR

HEK293 [6] = test: cells; conditions: Homo sapiens
HEK293 [7] = test: cells; conditions: Homo sapiens; remark: listed apart in the source
[8] = target: Dual specificity tyrosine-phosphorylation-regulated kinase 1A (Rattus norvegicus, UniProt Q63470); assay type: biochemical, Homo sapiens
[9] = HeLa cell cytotoxicity, dose response, cytotoxicity control for MgcRacGAP inhibitor project (AID 624300); assay type: functional
[10] = target: T1, Rac GTPase-activating protein 1 (Homo sapiens, UniProt Q9H0H5); test: MgcRacGAP GTPase-activating activity inhibitors, confirmation, biochemical, ADP Hunter fluorescence, primary and confirmatory (AID 624330); assay type: functional
T1 sequence (Q9H0H5 whole entry): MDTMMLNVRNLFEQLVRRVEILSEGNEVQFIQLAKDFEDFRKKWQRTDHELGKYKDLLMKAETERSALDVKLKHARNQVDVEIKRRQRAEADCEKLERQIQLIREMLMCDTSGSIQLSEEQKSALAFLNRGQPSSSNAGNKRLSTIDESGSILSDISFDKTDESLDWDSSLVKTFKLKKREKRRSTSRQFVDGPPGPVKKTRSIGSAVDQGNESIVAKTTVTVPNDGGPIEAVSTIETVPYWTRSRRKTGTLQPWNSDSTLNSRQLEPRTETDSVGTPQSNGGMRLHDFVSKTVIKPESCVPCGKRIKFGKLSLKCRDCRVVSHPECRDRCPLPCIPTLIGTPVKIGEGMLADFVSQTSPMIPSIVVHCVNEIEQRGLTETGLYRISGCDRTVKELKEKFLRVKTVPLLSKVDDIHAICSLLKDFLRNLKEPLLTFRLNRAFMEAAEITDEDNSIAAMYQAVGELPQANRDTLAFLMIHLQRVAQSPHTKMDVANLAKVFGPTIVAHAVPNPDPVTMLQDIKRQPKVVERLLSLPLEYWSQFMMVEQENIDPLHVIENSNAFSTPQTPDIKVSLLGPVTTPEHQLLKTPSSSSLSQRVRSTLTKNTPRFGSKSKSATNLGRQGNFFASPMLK

Paired box protein Pax-8 = Paired box protein Pax-8 (Homo sapiens, UniProt Q06710); test: inhibitors of PAX8-driven TPO luciferase reporter, dose response, RMG-I cells, cherry-pick (AID 687027); assay type: functional, cell-based;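 further: luciferase reporter driven by Pax8 target thyroperoxidase promoter measured by SteadyGlo luminescence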
Sequence of Paired box protein Pax-8 (Q06710 whole entry): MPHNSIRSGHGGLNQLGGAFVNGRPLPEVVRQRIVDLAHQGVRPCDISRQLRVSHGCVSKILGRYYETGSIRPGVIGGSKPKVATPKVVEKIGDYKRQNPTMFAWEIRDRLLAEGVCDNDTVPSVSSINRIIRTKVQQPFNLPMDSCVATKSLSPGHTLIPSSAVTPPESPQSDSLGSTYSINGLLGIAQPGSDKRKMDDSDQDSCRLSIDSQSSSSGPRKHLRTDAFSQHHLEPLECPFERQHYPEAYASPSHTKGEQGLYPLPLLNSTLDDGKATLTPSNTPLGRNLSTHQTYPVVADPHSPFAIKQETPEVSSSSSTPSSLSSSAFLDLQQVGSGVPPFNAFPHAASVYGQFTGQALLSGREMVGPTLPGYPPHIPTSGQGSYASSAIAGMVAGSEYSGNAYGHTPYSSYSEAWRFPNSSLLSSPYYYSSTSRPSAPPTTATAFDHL

Protein Tat = Protein Tat (Human immunodeficiency virus type 1 group M subtype B (isolate HXB2)(HIV-1), UniProt P04608); assay type: functional;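 further: tat binding to TAR RNA read out by fluorescence polarization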
Sequence of Protein Tat (P04608 whole entry): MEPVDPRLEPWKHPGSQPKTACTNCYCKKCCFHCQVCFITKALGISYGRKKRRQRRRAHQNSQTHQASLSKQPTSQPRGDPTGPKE

[11] = target: G-protein coupled receptor 183 (Homo sapiens, UniProt P32249); test: SAR confirmation of small molecule antagonists of the EBI2 receptor via a luminescent beta-arrestin assa.; assay type: functional
Sequence of G-protein coupled receptor 183 (P32249 whole entry): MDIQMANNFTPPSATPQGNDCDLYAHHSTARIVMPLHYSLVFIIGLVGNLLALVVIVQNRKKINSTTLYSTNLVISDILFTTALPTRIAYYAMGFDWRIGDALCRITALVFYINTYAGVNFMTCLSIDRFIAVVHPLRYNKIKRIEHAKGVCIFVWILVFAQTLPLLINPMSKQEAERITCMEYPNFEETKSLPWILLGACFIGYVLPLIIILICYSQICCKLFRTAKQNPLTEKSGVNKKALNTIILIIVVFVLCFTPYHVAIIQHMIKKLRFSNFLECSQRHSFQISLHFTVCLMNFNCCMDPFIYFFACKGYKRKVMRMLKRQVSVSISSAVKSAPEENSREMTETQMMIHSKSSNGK

[12] = P. falciparum 3D7-ScDHODH growth inhibitors, dose response, SYBR Green, dry powder samples (AID 1159570); assay type: functional, cell-based;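 further: parasite growth measured after 72 hours of compound exposure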
[13] = P. falciparum Dd2 growth inhibitors, dose response, SYBR Green, cherry-picked samples (AID 1159567); assay type: functional, cell-based
[14] = P. falciparum Dd2 growth inhibitors, dose response, SYBR Green, dry powder samples (AID 1159566); assay type: functional, cell-based;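 further: potency for growth inhibition with lower SYBR green DNA signal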
[15] = P. falciparum ATP4 D1247Y mutant growth inhibitors, dose response, NITD609-resistant line, SYBR Green, dry powder (AID 1159571); assay type: functional, cell-based;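 further: parasites synchronized at ring stage by sorbitol before testing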
[16] = NIH-3T3 fibroblast cytotoxicity, dose response, cytotoxicity control, cell-based, fluorescence, Alamar Blue, secondary assay (AID 2327); assay type: functional;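 further: NIH-3T3 mouse fibroblasts cultured with fluconazole at 8 µg/mL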
Beta-galactosidase = Beta-galactosidase (Escherichia coli, UniProt Q8VNN2); test: PubChem AID 485352; assay type: functional
Sequence of Beta-galactosidase (Q8VNN2 whole entry): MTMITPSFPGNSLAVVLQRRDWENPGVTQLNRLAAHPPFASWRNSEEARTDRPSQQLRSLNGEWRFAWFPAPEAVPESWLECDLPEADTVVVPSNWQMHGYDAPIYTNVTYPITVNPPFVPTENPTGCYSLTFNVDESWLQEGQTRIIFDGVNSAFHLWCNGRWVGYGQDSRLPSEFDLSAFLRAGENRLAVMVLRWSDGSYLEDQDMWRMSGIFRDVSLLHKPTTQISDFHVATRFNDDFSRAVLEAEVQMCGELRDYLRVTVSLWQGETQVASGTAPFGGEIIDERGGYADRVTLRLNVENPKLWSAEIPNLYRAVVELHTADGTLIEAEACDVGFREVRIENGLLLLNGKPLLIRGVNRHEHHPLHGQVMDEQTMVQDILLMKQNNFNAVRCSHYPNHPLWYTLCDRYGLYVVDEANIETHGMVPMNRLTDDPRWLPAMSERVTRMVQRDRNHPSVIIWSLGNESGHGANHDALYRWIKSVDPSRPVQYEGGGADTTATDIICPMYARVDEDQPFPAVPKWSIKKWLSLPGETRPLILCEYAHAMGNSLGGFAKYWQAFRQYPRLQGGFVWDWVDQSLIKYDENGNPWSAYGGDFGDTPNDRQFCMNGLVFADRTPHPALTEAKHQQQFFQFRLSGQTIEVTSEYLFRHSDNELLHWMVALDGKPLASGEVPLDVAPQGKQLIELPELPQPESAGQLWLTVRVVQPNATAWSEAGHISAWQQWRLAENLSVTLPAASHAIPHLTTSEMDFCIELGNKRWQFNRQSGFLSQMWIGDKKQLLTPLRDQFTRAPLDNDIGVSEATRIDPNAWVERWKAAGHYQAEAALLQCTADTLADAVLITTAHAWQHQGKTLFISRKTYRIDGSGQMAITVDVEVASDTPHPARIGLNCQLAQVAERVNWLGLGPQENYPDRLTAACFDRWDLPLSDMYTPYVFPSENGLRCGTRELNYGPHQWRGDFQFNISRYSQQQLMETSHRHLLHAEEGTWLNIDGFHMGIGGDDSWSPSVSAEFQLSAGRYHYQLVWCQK

[17] = C. albicans growth with fluconazole, confirmation, fluorescence, retest (AID 2467); assay type: functional, cell-based
Large T antigen = Large T antigen (Simian virus 40, UniProt P03070); assay type: functional, Betapolyomavirus macacae;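 further: Confirmatory-stage PubChem screen for compounds that inhibit SV40 T antigen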
[18] = target: T2, Type-1 angiotensin II receptor (Homo sapiens, UniProt P30556); test: AT1 receptor antagonists, dose response, selectivity assay for APJ receptor antagonist project, cell-based, uHTS hits (AID 463214); assay type: functional;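 further: antagonist potency against angiotensin II stimulated AT1 response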
T2 sequence (P30556 whole entry): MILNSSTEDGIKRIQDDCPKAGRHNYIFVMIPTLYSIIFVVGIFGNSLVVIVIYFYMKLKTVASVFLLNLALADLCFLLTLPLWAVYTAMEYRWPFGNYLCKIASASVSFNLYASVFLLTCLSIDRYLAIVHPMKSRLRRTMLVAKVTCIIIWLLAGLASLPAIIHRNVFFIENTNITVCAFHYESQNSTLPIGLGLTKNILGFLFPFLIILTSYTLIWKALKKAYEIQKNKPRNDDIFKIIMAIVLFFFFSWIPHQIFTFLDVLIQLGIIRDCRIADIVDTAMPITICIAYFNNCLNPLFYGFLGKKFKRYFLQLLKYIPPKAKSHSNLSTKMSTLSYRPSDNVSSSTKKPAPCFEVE

[19] = growth suppression of PTEN-null colon cells, dose response, cell-based, HCT116 PTEN knockout (AID 1047); assay type: functional;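 further: HCT116 colon tumor cells with PTEN knocked out; cells exposed to compound for 60 hours before readout; potency for loss of cell viability measured by luminescence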
[20] = target: Bifunctional protein GlmU (Mycobacterium tuberculosis, UniProt P9WMN3); test: Inhibitors of Mycobacterial Glucosamine-1-phosphate acetyl transferase (GlmU). Secondary screen.; set-up: species or system Mycobacterium tuberculosis H37Rv
Sequence of Bifunctional protein GlmU (P9WMN3 whole entry): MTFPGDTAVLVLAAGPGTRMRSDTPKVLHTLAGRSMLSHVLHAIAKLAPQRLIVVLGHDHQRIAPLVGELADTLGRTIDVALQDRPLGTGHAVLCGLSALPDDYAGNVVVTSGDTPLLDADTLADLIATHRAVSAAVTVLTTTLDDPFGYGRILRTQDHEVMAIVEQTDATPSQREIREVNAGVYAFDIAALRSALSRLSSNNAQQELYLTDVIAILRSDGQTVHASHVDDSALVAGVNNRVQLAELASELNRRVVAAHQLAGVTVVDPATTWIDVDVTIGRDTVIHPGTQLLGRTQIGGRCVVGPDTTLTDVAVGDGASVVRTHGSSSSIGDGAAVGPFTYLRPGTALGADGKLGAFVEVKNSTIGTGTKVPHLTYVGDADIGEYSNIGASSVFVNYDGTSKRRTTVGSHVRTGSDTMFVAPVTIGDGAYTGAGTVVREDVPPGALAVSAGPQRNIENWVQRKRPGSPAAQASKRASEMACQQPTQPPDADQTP

[21] = growth suppression of beta-catenin-knockout colon cells, dose response, cell-based, HCT116, human colon tumor (AID 1045); assay type: functional;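 further: HCT116 colon tumor cells with beta catenin knocked out; cells exposed to compound for 60 hours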
[22] = target: Glucose-6-phosphate 1-dehydrogenase (Homo sapiens, UniProt P11413); test: human G6PD enzyme inhibitors, dose response, selectivity assay for P. falciparum G6PD inhibitor project, biochemical, fluorescence (AID 504792); assay type: functional
[23] = target: Heat shock protein HSP 90-alpha (Homo sapiens, UniProt P07900); assay type: functional, organism-based
Vero = test: cells; assay type: functional; conditions: Chlorocebus sabaeus
[24] = half-maximal inhibitory concentration for glucagon-like peptide-1 release, STC-1 cell line, dose-response (AID 1117345); assay type: functional, cell-based
[25] = Glucagon-like peptide 1 release potency, NCI-H716 cell line, dose-response, half-maximal inhibitory concentration (AID 1117344); assay type: functional, cell-based
[26] = Dose-response inhibition of insulin secretion in a rat insulinoma line at 5 mM glucose (AID 1117331); assay type: functional, cell-based; conditions: INS-1E
Nonstructural protein 1 = Nonstructural protein 1 (Influenza A virus, UniProt Q194T2); assay type: functional, Influenza A virus (A/California/07/2009(H1N1))
Sequence of Nonstructural protein 1 (Q194T2 whole entry): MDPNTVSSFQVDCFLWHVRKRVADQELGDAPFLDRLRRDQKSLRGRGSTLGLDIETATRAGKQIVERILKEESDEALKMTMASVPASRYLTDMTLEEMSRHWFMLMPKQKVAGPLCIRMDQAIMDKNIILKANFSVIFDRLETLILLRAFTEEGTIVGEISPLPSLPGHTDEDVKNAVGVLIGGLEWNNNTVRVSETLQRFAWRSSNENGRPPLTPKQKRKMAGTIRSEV

Protein skinhead-1 = target: T3, Protein skinhead-1 (Caenorhabditis elegans, UniProt P34707); assay type: functional
T3 sequence (P34707 whole entry): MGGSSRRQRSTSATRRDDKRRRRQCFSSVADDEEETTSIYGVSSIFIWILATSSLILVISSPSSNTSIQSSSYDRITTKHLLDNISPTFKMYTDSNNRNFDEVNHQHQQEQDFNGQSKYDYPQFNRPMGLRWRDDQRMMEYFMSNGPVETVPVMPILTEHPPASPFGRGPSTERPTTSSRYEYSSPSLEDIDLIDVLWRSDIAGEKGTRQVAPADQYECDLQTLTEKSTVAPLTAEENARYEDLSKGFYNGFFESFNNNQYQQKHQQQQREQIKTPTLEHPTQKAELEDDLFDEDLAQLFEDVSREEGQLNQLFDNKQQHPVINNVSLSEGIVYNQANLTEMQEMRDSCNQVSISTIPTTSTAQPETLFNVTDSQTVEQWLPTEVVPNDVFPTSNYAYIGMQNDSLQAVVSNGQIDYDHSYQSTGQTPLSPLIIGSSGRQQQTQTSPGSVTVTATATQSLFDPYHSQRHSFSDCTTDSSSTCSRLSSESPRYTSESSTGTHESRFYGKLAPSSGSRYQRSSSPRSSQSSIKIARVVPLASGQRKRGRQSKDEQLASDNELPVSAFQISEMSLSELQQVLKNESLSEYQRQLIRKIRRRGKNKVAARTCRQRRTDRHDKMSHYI

[27] = THP-1 cell cytotoxicity, dose response, cytotoxicity control for Vif-APOBEC3G degradation inhibitor project, THP-1 cells (AID 1117359); assay type: functional; conditions: Human immunodeficiency virus 1, THP-1
[28] = target: Glutathione-S-transferase (Schistosoma japonicum, UniProt Q26513); test: biotin-GST/anti-GST TR-FRET signal inhibitors, dose response, artefact control for Vif-APOBEC3G degradation inhibitor project, biochemical (AID 1117362); assay type: functional

O=C(Nc1cccc(C(F)(F)F)c1)c1cccnc1NCCc1ccccc1
CC50 [1]: > 40 µM (active)

CC(C)N1CCC2(CC1)C(C#N)=C(N)NC(S)=C2C#N
IC50 [2]: > 100 µM (active) | CC50 [1]: > 40 µM (active)

Clc1ccc2c(c1)-c1ccccc1C1=NCCN12
EC50 [3]: 4.65 µM (active) | EC50 [4]: > 91.3 µM (inactive) | IC50 [5]: > 43.8 µM (inactive) | EC50 (HEK293 [6]): > 59.5 µM (inactive) | EC50 (HEK293 [7]): > 59.5 µM (inactive)

CN(C)CCNc1ccc(CO)c2sc3ccc(O)cc3c(=O)c12
AC50 [8]: 1.82 µM (active) | CC50 [9]: 36.1 µM (active) | IC50 [10]: 20.2 µM (active) | AC50 (Paired box protein Pax-8): 5.72 µM (active) | IC50 [5]: > 43.8 µM (inactive)

CC1CCCC(/C=N/c2ccc(O)cc2)=C1O (stereo not given)
IC50 [10]: 26.9 µM (active) | IC50 (Protein Tat): 30.8 µM (inconclusive)

O=C(/C=C/c1ccc(Br)cc1)N1CCN(C(=O)c2cccc(B(O)O)c2)CC1
IC50 [11]: 0.0287 µM (active)

COc1cccc(S(=O)(=O)N2CCN(C(=O)/C=C/c3ccc(F)cc3)CC2)c1
IC50 [11]: 0.0521 µM (active)

COc1ccc2c3c([nH]c2c1)[C@H](CO)N(C(=O)C1CCOCC1)CC31CCN(Cc2nccs2)CC1
AC50 [12]: 0.387 µM (active) | AC50 [13]: 2.43 µM (active) | AC50 [14]: 0.467 µM (active) | AC50 [15]: 0.384 µM (active)

CCN(CC)C(=S)SSC(=S)N(CC)CC
EC50 [16]: > 160 µM (inconclusive) | EC50 (Beta-galactosidase): > 40 µM (inactive) | EC50 [17]: 2.43 µM (active) | IC50 (Large T antigen): 10.7 µM (active) | IC50 [18]: 6.64 µM (active) | EC50 [19]: 0.087 µM (active) | IC50 [20]: 85 µM (active) | EC50 [21]: 0.091 µM (active) | IC50 [22]: > 80 µM (inactive) | AC50 [23]: 5.18 µM (active) | CC50 (Vero): > 25 µM (active)

COc1cc2nc(N3CCN(C(=O)C4COc5ccccc5O4)CC3)nc(N)c2cc1OC (stereo not given) [DOXAZOSIN MESYLATE]
IC50 [24]: 10.7 µM (inactive) | IC50 [25]: > 40 µM (inactive)

CCOC(=O)c1ccccc1O [ETHYL SALICYLATE]
IC50 [26]: > 33.3 µM (inactive) | IC50 [24]: > 40 µM (inactive) | IC50 [25]: > 40 µM (inactive)

COc1ccc(Cl)cc1C(=O)NCCc1ccc(S(=O)(=O)NC(=O)NC2CCCCC2)cc1 [GLYBURIDE]
IC50 [26]: 0.00808 µM (active)

N=C1C=CC(=C(c2ccc(N)cc2)c2ccc(N)cc2)C=C1 [PARAROSANILINE]
IC50 (Nonstructural protein 1): 6.87 µM (active) | IC50 (Protein skinhead-1): 13.4 µM (active) | CC50 [9]: 50.3 µM (active) | IC50 [10]: 98 µM (active) | IC50 (Protein Tat): > 100 µM (active) | CC50 [27]: 7.58 µM (active) | IC50 [28]: 4.08 µM (active)

— ChEMBL document CHEMBL1201862, “PubChem BioAssay data set” (2004)
